Experimental data published in patent US20190127456A1, “METHODS OF TREATING IDIOPATHIC PULMONARY FIBROSIS” (FibroGen, Inc., priority 2017, published 2019).
Where two headings read alike, the source gives them in different places.

What was measured:
[1] = system: radiation-induced lung fibrosis; test: Mouse radiation-induced lung fibrosis model: lung volume by HRCT; format: in vivo; conditions: 14.5 Gy irradiated mice, treated 8 weeks from week 16, measured at 24 weeks; FIG. 4
Method: The objective of this study was to compare the activity of pamrevlumab monotherapy to either pirfenidone or nintedanib alone, and to evaluate the potential for enhanced activity of the combined agents. […] In this study, mice received thoracic irradiation (RT), followed by the therapeutic administration of the agents at 16 weeks post-irradiation when lung remodeling was evident by HRCT. After 8 weeks of drug treatment, lung density and volume were assessed by HRCT, lung function was assessed by blood gas analysis, and mice were sacrificed for histologic and gene expression analysis. C57B1/6 mice were irradiated with 14.5 Gy photons; full thorax, single dose. Treatment with therapeutic agent(s) (pamrevlumab, pirfenidone, and/or nintedanib) was initiated 16 weeks post-irradiation and continued for 8 weeks. Pamrevlumab (FG) was given IP, BIW, at 40 mg/kg; pirfenidone (PF) was given PO in chow, QD, at 300 mg/kg; nintedanib (ND) was given PO in chow, QD, at 100 mg/kg. Treatment with each agent alone, with combinations of two, and with a triple combination were carried out. Controls included non-irradiated mice, mice that were irradiated and not treated, and mice that were irradiated and given human IgG. Endpoint measurements were taken at 24 weeks for HRCT (lung structure), blood gas analysis (lung function), histology and gene expression analysis. […]

[2] = system: radiation-induced lung fibrosis; test: Mouse radiation-induced lung fibrosis model: lung function by blood gas analysis; format: in vivo; conditions: blood gas analysis at 24 weeks, compared to RT with no treatment; data not shown
Method: The objective of this study was to compare the activity of pamrevlumab monotherapy to either pirfenidone or nintedanib alone, and to evaluate the potential for enhanced activity of the combined agents. […] In this study, mice received thoracic irradiation (RT), followed by the therapeutic administration of the agents at 16 weeks post-irradiation when lung remodeling was evident by HRCT. After 8 weeks of drug treatment, lung density and volume were assessed by HRCT, lung function was assessed by blood gas analysis, and mice were sacrificed for histologic and gene expression analysis. C57B1/6 mice were irradiated with 14.5 Gy photons; full thorax, single dose. Treatment with therapeutic agent(s) (pamrevlumab, pirfenidone, and/or nintedanib) was initiated 16 weeks post-irradiation and continued for 8 weeks. Pamrevlumab (FG) was given IP, BIW, at 40 mg/kg; pirfenidone (PF) was given PO in chow, QD, at 300 mg/kg; nintedanib (ND) was given PO in chow, QD, at 100 mg/kg. Treatment with each agent alone, with combinations of two, and with a triple combination were carried out. Controls included non-irradiated mice, mice that were irradiated and not treated, and mice that were irradiated and given human IgG. […] The effect of the treatments on lung function was assessed by blood gas analysis (data not shown).

[3] = system: fibrosis genes in irradiated lung; test: Microarray analysis of mRNA transcripts in irradiated lung; format: in vivo, mouse; conditions: for % Normalization of gene expression, Igfbp5 / % Normalization of gene expression, Abca3 / % Normalization of gene expression, Gdf2 / % Normalization of gene expression, Cx3cl1 / % Normalization of gene expression, Retnla / % Normalization of gene expression, Nt5e / % Normalization of gene expression, Plat / % Normalization of gene expression, Ccr2 / % Normalization of gene expression, Igfbp7 / % Normalization of gene expression, Cdkn2a / % Normalization of gene expression, Apln / % Normalization of gene expression, Wisp1: irradiated mouse lung, 24 weeks after RT, 8 weeks treatment; for % Normalization of gene expression, Igfbp5: RT fold change 0.3; for % Normalization of gene expression, Abca3 / % Normalization of gene expression, Gdf2: RT fold change 0.4; for % Normalization of gene expression, Cx3cl1: RT fold change 0.5; for % Normalization of gene expression, Retnla: RT fold change 2.0; for % Normalization of gene expression, Nt5e: RT fold change 2.1; for % Normalization of gene expression, Plat: RT fold change 2.2; for % Normalization of gene expression, Ccr2: RT fold change 2.4; for % Normalization of gene expression, Igfbp7: RT fold change 2.6; for % Normalization of gene expression, Cdkn2a: RT fold change 2.7; for % Normalization of gene expression, Apln: RT fold change 5.3; for expression of the Wisp 1 and Nt5e genes: monotherapy compared to RT treatment alone
Method: C57B1/6 mice were irradiated with 14.5 Gy photons; full thorax, single dose. Treatment with therapeutic agent(s) (pamrevlumab, pirfenidone, and/or nintedanib) was initiated 16 weeks post-irradiation and continued for 8 weeks. Pamrevlumab (FG) was given IP, BIW, at 40 mg/kg; pirfenidone (PF) was given PO in chow, QD, at 300 mg/kg; nintedanib (ND) was given PO in chow, QD, at 100 mg/kg. Treatment with each agent alone, with combinations of two, and with a triple combination were carried out. Controls included non-irradiated mice, mice that were irradiated and not treated, and mice that were irradiated and given human IgG. Endpoint measurements were taken at 24 weeks for HRCT (lung structure), blood gas analysis (lung function), histology and gene expression analysis.
Microarray analysis of mRNA transcripts of numerous genes at 24 weeks after RT were carried out by standard techniques to compare the expression profiles of irradiated and treated animals to irradiated animals that were not further treated. The results of the later group, RT (control), were used to normalize the expression data from the other groups. Briefly, RNA from 4-7 animals per condition (RT (control), RT+hIgG, RT+FG, RT+ND, RT+PF, RT+FG+ND, RT+FG+PF, RT+ND+PF, RT+FG+ND+PF). Affymetrix 430 2.0 data was used. RT induced changes (≥1.5×, p<0.05) were filtered for treatment dependent correction (>50% correction, p<0.05). 80 RT-induced and 68 RT-suppressed transcripts were normalized at least 50% by one or more treatments. The resulting list was dominated by pamrevlumab-dependent normalization. Functional analysis indicated pamrevlumab treatment preferentially normalized RT genes known to be regulated by TGFβ and TNF.

[4] = cited from earlier work
[5] = IPF patients; cited from earlier work
[6] = combined clinical studies of pirfenidone, cited from earlier work
[7] = system: IPF; conditions: Week 52, Phase 3 clinical study; cited from earlier work

| Structure (SMILES) | % Normalization of gene expression, Igfbp5 [3] | % Normalization of gene expression, Abca3 [3] | % Normalization of gene expression, Gdf2 [3] | % Normalization of gene expression, Cx3cl1 [3] | % Normalization of gene expression, Retnla [3] | % Normalization of gene expression, Nt5e [3] | % Normalization of gene expression, Plat [3] | % Normalization of gene expression, Ccr2 [3] | % Normalization of gene expression, Igfbp7 [3] | % Normalization of gene expression, Cdkn2a [3] | % Normalization of gene expression, Apln [3] | % Normalization of gene expression, Wisp1 ([3]; RT fold change 6.9) | % Normalization of gene expression, Wisp1 ([3]; RT fold change 11.9) | expression of the Wisp 1 and Nt5e genes [3] | also measured |
| --- | --- | --- | --- | --- | --- | --- | --- | --- | --- | --- | --- | --- | --- | --- | --- |
| COC(=O)c1ccc2c(c1)NC(=O)/C2=C(\Nc1ccc(N(C)C(=O)CN2CCN(C)CC2)cc1)c1ccccc1 [nintedanib] | 54% | −35% | 33% | −21% | −9% | −22% | −55% | 10% | 10% | 9% | 6% | −7% | −18% | further induction of expression | radiation-induced lung volume decrease [1]: not statistically different; O2 saturation [2]: normalized O2 saturation; patients with arterial thromboembolic events ([4]; a clinical trial of nintedanib): 2.5%; patients experiencing abdominal pain ([4]; clinical trials of nintedanib): 15%; patients experiencing vomiting ([4]; clinical trials of nintedanib): 12%; patients experiencing nausea ([4]; clinical trials of nintedanib, placebo 7%): 24%; patients experiencing diarrhea ([4]; clinical trials of nintedanib, placebo 18%): 62%; plasma half-life [5]: 9.5 h |
| Cc1ccc(=O)n(-c2ccccc2)c1 [pirfenidone, 5-methyl-1-phenyl-2-(1H)-pyridone] | 27% | −20% | 10% | −8% | −7% | −58% | 0% | −20% | −6% | −37% | 41% | −21% | −78% | further induction of expression | patients experiencing abdominal pain [6]: 24%; patients experiencing vomiting [6]: 13%; patients with skin rash [6]: 30%; patients experiencing nausea ([6]; placebo 16%): 36%; patients experiencing diarrhea ([6]; placebo 20%): 26%; mean UCSD-SOBQ score over placebo treated patients [7]: no statistical significance |
